Source: ChEMBL document CHEMBL2203247, “Ribonuclease-Activated Cancer Prodrug” (ACS Med Chem Lett, 2012)

What was measured:
[1] = Prodrug stability assessed as compound degradation at 37 degC after 11 hrs in absence of ribonuclease 1 at pH 6.0 by HPLC analysis; assay type: physicochemical; conditions: buffer, pH 6, 11 h
[2] = Prodrug stability assessed as 4-hydroxytamoxifen release at 40 uM in pH 7.4 ribonuclease free 0.10 M sodium phosphate buffer containing NaCl and in absence of RNase 1; assay type: physicochemical; conditions: pH 7.4, 40 µM
[3] = target: T1, Ribonuclease pancreatic (Homo sapiens, UniProt P07998); test: Prodrug activation assessed as half life for ribonuclease 1 mediated 4-hydroxytamoxifen release in MES-NaOH buffer at pH 6.0 by HPLC analysis
T1 sequence (P07998 whole entry): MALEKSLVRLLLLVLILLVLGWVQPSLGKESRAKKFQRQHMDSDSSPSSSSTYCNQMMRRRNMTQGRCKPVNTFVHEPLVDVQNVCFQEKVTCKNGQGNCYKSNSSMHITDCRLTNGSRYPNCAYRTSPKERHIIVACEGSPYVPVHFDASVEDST

[4] = test system: MCF7; test: Antiproliferative activity against human MCF7 cells assessed as incorporation of [methyl-3H]thymidine into cellular DNA in serum free medium in presence of 6.2 ug/mL RNase 1; assay type: functional, cell-based
[5] = test system: MCF7; test: Antiproliferative activity against human MCF7 cells assessed as incorporation of [methyl-3H]thymidine into cellular DNA in serum free medium in absence of 6.2 ug/mL RNase 1; assay type: functional, cell-based
[6] = Prodrug stability assessed as 4-hydroxytamoxifen release at 40 uM in serum free medium in absence of RNase 1; assay type: ADME

Row | Drug degradation [1] | t1/2 [2] | t1/2 [3] | t1/2 [6] | Structure (SMILES) | IC50 [4] | IC50 [5]
1 | < 6% | 9.4 h | 4 h | 9 h | CC/C(=C(/c1ccc(OCCN(C)C)cc1)c1ccc(OP(=O)(O)O[C@H]2[C@@H](O)[C@H](n3ccc(=O)[nH]c3=O)O[C@@H]2CO)cc1)c1ccccc1 | 5.2 µM | 16.7 µM
2 | – | – | – | – | CCC(=C(c1ccc(O)cc1)c1ccc(OCCN(C)C)cc1)c1ccccc1 | 2.7 µM | 2.7 µM
